Patent publication US11925724B2, “Compounds with dual activity” (priority 2015, dated 2024)
Square brackets hold non-standard residues; d marks the D form. Ends that are not written are not given here. Peptide text beside a SMILES is read from it. Phe(4-F) = N[CH](Cc1ccc(F)cc1)C(=O)O; Dopa = N[CH](Cc1ccc(O)c(O)c1)C(=O)O

Legend:
[1] = Peptide layer thickness on Ti by XPS; format: physicochemical; conditions: peptide-coated Ti substrate
Source text: Using X-ray Photoelectron Spectrometry (XPS) analysis, the presence of fluorine atoms on the surface and the thickness of the peptide layer were characterized. As expected, in the case of a bare titanium, there was no indication of the presence of fluorine, while in all cases of substrate-coated with peptides, the presence of fluorine signal indicated the deposition of the peptides on the surface (FIG. 3).

Escherichia Coli = assay: Adherence of Escherichia Coli to bare and peptide coated substrates (live bacteria count after biofilm formation); format: cell-based; conditions: peptide-coated Ti, overnight incubation in bacteria medium, CFU plate counts
Protocol: To assess the bacterial attachment to the surfaces and the anti-fouling activity of the peptides, the adherence of Escherichia Coli to bare and peptide coated substrates was promoted. Following this, the surfaces incubated overnight in the bacteria medium to enable the biofilm formation. After the incubation, the surfaces were slowly rinsed, swabbed the adhered bacteria and seeded them in order to evaluate the number of live bacteria on the substrates. […] Escherichia coli were grown in LB medium for 5.5 hours at 37° C. in loosely capped erlenmeyer flask with agitation (120 rpm). […] Afterward, LB media (2 mL) were added to each well and the plates were incubated at 37° C. overnight. Each surface was rinsed by shaking the surface in sterilized water three times. A sterile swab was then used to pick up the biofilms attached to the surfaces. The swabs were inserted into eppendorf tubes containing 1 mL of sterilized water and vortexed for 1 min. Each sample was decimally diluted and plated out on dried LB agar (10 g LB and 7.5 g agar per 0.5 L TDW) plate (8 drops of 10 ul for each dilution). Plate counts (CFU mL-1) were carried out after incubation over night at 37° C. The data presents 3 experiments with triplicates for each experiment. The data is given as mean values ±standard deviations. Significant differences between group means were analyzed by t-test and confidence levels were set at 95%.

| Compound | thickness of the peptide layer (XPS) [1] | reduction of live bacteria on substrate as compared to a bare Ti surface (Escherichia Coli) |
| --- | --- | --- |
| N=C(N)NCCCC(NC(=O)C(Cc1ccc(F)cc1)NC(=O)C(Cc1ccc(F)cc1)NC(=O)C(N)Cc1ccc(O)c(O)c1)C(=O)NCC(=O)NC(CC(=O)O)C(N)=O (stereo not drawn) [Peptide 1, DOPA-Phe(4F)-Phe(4F)-Arg-Gly-Asp] (H-[Dopa][Phe(4-F)][Phe(4-F)]RGD-NH2; configuration not given here) | 4.74 nm | up to 80% |
| N=C(N)NCCCC(NC(=O)C(Cc1ccc(O)c(O)c1)NC(=O)C(Cc1ccc(F)cc1)NC(=O)C(N)Cc1ccc(F)cc1)C(=O)NCC(=O)NC(CC(=O)O)C(N)=O (stereo not drawn) [Peptide 2] (H-[Phe(4-F)][Phe(4-F)][Dopa]RGD-NH2; configuration not given here) | 4.33 nm | ≤ 82% |
| Peptide 4: control peptide with the same amino acids in mixed sequence, without the cell adhesion and the anti-fouling elements ([Dopa][Phe(4-F)]DG[Phe(4-F)]R; not fully specified (C-terminus)) |  | ≤ 62% |
| N=C(N)NCCCC(NC(=O)C(Cc1ccc(F)cc1)NC(=O)C(CC(=O)O)NC(=O)C(N)Cc1ccc(O)c(O)c1)C(=O)NC(Cc1ccc(F)cc1)C(=O)NCC(N)=O (stereo not drawn) [Peptide 3] (H-[Dopa]D[Phe(4-F)]R[Phe(4-F)]G-NH2; configuration not given here) |  | up to 72% |
